Among the data in patent US11634396B2 (priority 2021, dated 2023) are IC50 values, retold here.

This assay concerns the target human mOR (Homo sapiens (Human), UniProt P35372). Briefly: cell-based. How it is done:
CHO Tag-lite human mOR stable cell line from Cisbio (NCBI accession number: NM_000914.3, Bedford, Mass.) were seeded and grown to approximately 80% confluence in Ham F-12 with 10% FBS, 50 U/ml penicillin, 50 μg/ml streptomycin, 2 mM Hepes, and 1 mg/ml geneticin (Invitrogen, Carlsbad, Calif.). Cells were then harvested using accutase (Corning. Coming, N.Y.), centrifuged at 1300 RPM for 5 min, and plated at 5000 cells per 5 μL per well in a 5× dilution of stimulation buffer consisting of the HTRF cAMP Gi kit, water and IBMX at 0.5 mM (Cisbio, Bedford, Mass.) in white HTRF low volume 384 well plates (Cisbio, Bedford, Mass.). Plates were then incubated at 37° C. in 5% CO2 for 10 minutes. For the agonist assay, forskolin was added to a final concentration of 4 μM. […] Test compounds were dissolved in DMSO and water, and then serially diluted to working concentrations such that the concentration of DMSO was less than 0.1%. Diluted test compounds were added at 2.5 μL per well, and plates were incubated at 37° C., and 5% CO2 for 15 minutes, and then at room temperature for 15 minutes. Next 5 μl/well of cAMP Eu-cryptate and 5 μl/well of anti-cAMP-d2 (both diluted 1:20 in lysis buffer) were added, and plates were incubated at room temperature for 1 hour. Following incubation, plates were read in a Synergy Neo2 multi-mode reader (Biotek, Winooski, Vt.). […] For the agonist assay, data was normalized using the maximal DAMGO response. Measurements were performed in triplicate and the dose response was fit using nonlinear regression.

Where two headings read alike, the source gives them in different places.

Chain of human mOR (P35372 whole entry): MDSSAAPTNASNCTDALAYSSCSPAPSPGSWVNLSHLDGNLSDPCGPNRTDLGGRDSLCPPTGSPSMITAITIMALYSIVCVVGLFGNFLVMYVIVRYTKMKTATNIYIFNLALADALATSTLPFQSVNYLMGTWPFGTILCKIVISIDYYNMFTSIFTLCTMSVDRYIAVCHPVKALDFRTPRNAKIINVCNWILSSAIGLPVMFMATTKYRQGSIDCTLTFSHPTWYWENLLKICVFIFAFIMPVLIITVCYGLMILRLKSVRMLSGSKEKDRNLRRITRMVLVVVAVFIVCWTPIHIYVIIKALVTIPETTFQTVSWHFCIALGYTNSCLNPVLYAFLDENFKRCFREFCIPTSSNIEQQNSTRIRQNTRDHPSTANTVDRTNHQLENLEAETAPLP

With `CNC(=O)c1ccc(C[C@@H](CNC(=O)CC(c2ncc(Cl)cn2)C2(C(F)(F)F)CC2)N(C)C)c(Cl)c1F` (stereo partly drawn) [Compound 112, 3-chloro-4-((2S)-3-(3-(5-chloropyrimidin-2-yl)-3-(1-(trifluoromethyl)cyclopropyl)propanamido)-2-(dimethylamino)propyl)-2-fluoro-N-methylbenzamide], the IC50 (as a rule, the point on the concentration scale where inhibition reaches its midpoint) was over 3000 nM.

In the case of `CNC(=O)c1ccc(C[C@@H](CNC(=O)C[C@H](c2ccc(C)nc2)C2(C(F)(F)F)CC2)N(C)C)c(Cl)c1` [Compound 113, 3-chloro-4-((S)-2-(dimethylamino)-3-((R)-3-(6-methylpyridin-3-yl)-3-(1-(trifluoromethyl)cyclopropyl)propanamido)propyl)-N-methylbenzamide], the IC50 is under 300 nM.

Consider `CNC(=O)c1ccc(C[C@@H](CNC(=O)C[C@H](c2cncc(Cl)c2)C2(C(F)(F)F)CC2)N(C)C)c(Cl)c1` [Compound 114, 3-chloro-4-((S)-3-((R)-3-(5-chloropyridin-3-yl)-3-(1-(trifluoromethyl)cyclopropyl)propanamido)-2-(dimethylamino)propyl)-N-methylbenzamide], for which the half-inhibitory concentration (IC50) was under 300 nM.

As to `CNC(=O)c1ccc(C[C@@H](CNC(=O)CC(c2ccc(OC)nc2)C2(C(F)(F)F)CC2)N(C)C)c(Cl)c1` (stereo partly drawn) [Compound 115, 3-chloro-4-((2S)-2-(dimethylamino)-3-(3-(6-methoxypyridin-3-yl)-3-(1-(trifluoromethyl)cyclopropyl)propanamido)propyl)-N-methylbenzamide], under “read-out: mOR cAMP Antagonist Assay IC50”, the IC50 lay within 300 to 3000 nM.

With `CNC(=O)c1ccc(C[C@@H](CNC(=O)CC(c2cncc(F)c2)C2(C(F)(F)F)CC2)N(C)C)c(Cl)c1` (some centres unmarked) [Compound 116], the IC50 is under 300 nM.

On to `CNC(=O)c1ccc(C[C@@H](CNC(=O)CC(c2cncc(OC)c2)C2(C(F)(F)F)CC2)N(C)C)c(Cl)c1` (stereo partly drawn) [Compound 117, 3-chloro-4-((2S)-2-(dimethylamino)-3-(3-(5-methoxypyridin-3-yl)-3-(1-(trifluoromethyl)cyclopropyl)propanamido)propyl)-N-methylbenzamide], for which the concentration for half-maximal inhibition (IC50) was over 3000 nM.

Take `CNC(=O)c1ccc(C[C@@H](CNC(=O)CC(c2cc(C)ccn2)C2(C(F)(F)F)CC2)N(C)C)c(Cl)c1` (stereo partly drawn) [Compound 118, 3-chloro-4-((2S)-2-(dimethylamino)-3-(3-(4-methylpyridin-2-yl)-3-(1-(trifluoromethyl)cyclopropyl)propanamido)propyl)-N-methylbenzamide]: the half-maximal inhibitory concentration (IC50) is over 3000 nM.

Turning to `CNC(=O)c1ccc(C[C@@H](CNC(=O)CC(c2cccnc2)C2(C(F)(F)F)CC2)N(C)C)c(Cl)c1` (stereo partly drawn) [Compound 119, 3-chloro-4-((2S)-2-(dimethylamino)-3-(3-(pyridin-3-yl)-3-(1-(trifluoromethyl)cyclopropyl)propanamido)propyl)-N-methylbenzamide], the IC50 is under 300 nM.

Turning to `CNC(=O)c1ccc(C[C@@H](CNC(=O)CC(c2ncccc2F)C2(C(F)(F)F)CC2)N(C)C)c(Cl)c1` (stereo partly drawn) [Compound 120, 3-chloro-4-((2S)-2-(dimethylamino)-3-(3-(3-fluoropyridin-2-yl)-3-(1-(trifluoromethyl)cyclopropyl)propanamido)propyl)-N-methylbenzamide], the IC50 is under 300 nM.

As for `CNC(=O)c1ccc(C[C@@H](CNC(=O)CC(c2ccc(F)cn2)C2(C(F)(F)F)CC2)N(C)C)c(Cl)c1` (stereo partly drawn) [Compound 121, 3-chloro-4-((2S)-2-(dimethylamino)-3-(3-(5-fluoropyridin-2-yl)-3-(1-(trifluoromethyl)cyclopropyl)propanamido)propyl)-N-methylbenzamide], the half-inhibitory concentration (IC50) was under 300 nM.

As to `CNC(=O)c1ccc(C[C@@H](CNC(=O)CC(c2ccc(Cl)cn2)C2(C(F)(F)F)CC2)N(C)C)c(Cl)c1` (stereo partly drawn) [Compound 122, 3-chloro-4-((2S)-3-(3-(5-chloropyridin-2-yl)-3-(1-(trifluoromethyl)cyclopropyl)propanamido)-2-(dimethylamino)propyl)-N-methylbenzamide], the IC50 was under 300 nM.

Take `CNC(=O)c1ccc(C[C@@H](CNC(=O)C[C@H](c2cnc(C)s2)C2(C(F)(F)F)CC2)N(C)C)c(F)c1` [Compound 123, 4-((S)-2-(dimethylamino)-3-((S)-3-(2-methylthiazol-5-yl)-3-(1-(trifluoromethyl)cyclopropyl)propanamido)propyl)-3-fluoro-N-methylbenzamide]: the half-inhibitory concentration (IC50) was under 300 nM.

Regarding `CNC(=O)c1ccc(C[C@@H](CNC(=O)C[C@H](c2ccc(C)nc2)C2(C(F)(F)F)CC2)N(C)C)c(C)c1F` [Compound 125, 4-((S)-2-(dimethylamino)-3-((R)-3-(6-methylpyridin-3-yl)-3-(1-(trifluoromethyl)cyclopropyl)propanamido)propyl)-2-fluoro-N,3-dimethylbenzamide], the IC50 was under 300 nM.

As to `CNC(=O)c1ccc(C[C@@H](CNC(=O)C[C@@H](CC(C)C)c2cccnc2)N(C)C)c(C)c1` [Compound 126, 4-((S)-2-(dimethylamino)-3-((R)-5-methyl-3-(pyridin-3-yl)hexanamido)propyl)-N,3-dimethylbenzamide], the IC50 was over 3000 nM.

Regarding `CNC(=O)c1ccc(C[C@@H](CNC(=O)C[C@H](c2ccncc2F)C2(C(F)(F)F)CC2)N(C)C)c(C)c1` [Compound 127, 4-((S)-2-(dimethylamino)-3-((R)-3-(3-fluoropyridin-4-yl)-3-(1-(trifluoromethyl)cyclopropyl)propanamido)propyl)-N,3-dimethylbenzamide], the half-maximal inhibitory concentration (IC50) is under 300 nM.

For the compound `CNC(=O)c1ccc(C[C@@H](CNC(=O)C[C@H](c2ccc(F)cc2)C2(C(F)(F)F)CC2)N(C)C)c(C)c1` [Compound 128, 4-((S)-2-(dimethylamino)-3-((R)-3-(4-fluorophenyl)-3-(1-(trifluoromethyl)cyclopropyl)propanamido)propyl)-N,3-dimethylbenzamide], the concentration for half-maximal inhibition (IC50) was under 300 nM.

In the case of `CNC(=O)c1ccc(C[C@@H](CNC(=O)C[C@H](c2cccnc2)C(C)(C)C)N(C)C)c(C)c1` [Compound 129, 4-((S)-3-((S)-4,4-dimethyl-3-(pyridin-3-yl)pentanamido)-2-(dimethylamino)propyl)-N,3-dimethylbenzamide], the IC50 was under 300 nM.

As for `CNC(=O)c1ccc(C[C@@H](CNC(=O)C[C@H](c2cccnc2)C2(C(F)(F)F)CC2)N(C)C)c(C)c1` [Compound 131, 4-((S)-2-(dimethylamino)-3-((R)-3-(pyridin-3-yl)-3-(1-(trifluoromethyl)cyclopropyl)propanamido)propyl)-N,3-dimethylbenzamide], the IC50 was under 300 nM.

Consider `CNC(=O)c1ccc(C[C@@H](CNC(=O)C[C@H](c2ccc(C)nc2)C2(C(F)(F)F)CC2)N(C)C)c(C)c1` [Compound 132, 4-((S)-2-(dimethylamino)-3-((R)-3-(6-methylpyridin-3-yl)-3-(1-(trifluoromethyl)cyclopropyl)propanamido)propyl)-N,3-dimethylbenzamide], for which the IC50 is under 300 nM.

As to `CNC(=O)c1ccc(C[C@@H](CNC(=O)C[C@@H](CC2CC2)c2cccnc2)N(C)C)c(C)c1` [Compound 133, 4-((S)-3-((R)-4-cyclopropyl-3-(pyridin-3-yl)butanamido)-2-(dimethylamino)propyl)-N,3-dimethylbenzamide], the IC50 is over 3000 nM.
